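Method: 48-hour compound exposure of cells in 96-well plates, five concentrations, linear interpolation of endpoints. GI50: concentration for 50% inhibition of growth.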 Calls of active or inactive are those of the source. Rule as the data show it: active = GI50 up to about 1.1 µM and inactive = higher.
How the values were obtained:
Assay in all cases: NCI-60 cell line screen, 48 h
[1] = test system: U-251
[2] = test system: Malme-3M
[3] = test system: SW-620
[4] = test system: M14
[5] = test system: SF-295
[6] = test system: SK-OV-3
[7] = test system: HCC 2998
[8] = test system: NCI-H226
[9] = test system: HOP-62
[10] = test system: SNB-19
[11] = test system: SNB-75
[12] = test system: NCI/ADR-RES
[13] = test system: SK-MEL-28
[14] = test system: CCRF-CEM
[15] = test system: A549
[16] = test system: UACC-62
[17] = test system: RPMI-8226
[18] = test system: MOLT-4
[19] = test system: NCI-H522
[20] = test system: MCF7

Row | Structure (SMILES) | GI50 [1] | GI50 [2] | GI50 [3] | GI50 [4] | GI50 [5] | GI50 [6] | GI50 [7] | GI50 [8] | GI50 [9] | GI50 [10] | GI50 [11] | GI50 [12] | GI50 [13] | GI50 [14] | GI50 [15] | GI50 [16] | GI50 [17] | GI50 [18] | GI50 [19] | GI50 [20]
1 | COc1ccc(C(SC2C(O)C(CO)OC2n2ccc(N)nc2=O)(c2ccccc2)c2ccc(OC)cc2)cc1 (stereo not given) | 15.6 µM (inactive) | 15 µM (inactive) | 23.6 µM (inactive) | 12.7 µM (inactive) | 6.79 µM (inactive) | 12.2 µM (inactive) | 17.1 µM (inactive) | 14.2 µM (inactive) | 17.8 µM (inactive) | 16 µM (inactive) | 16.5 µM (inactive) | 21 µM (inactive) | 27.4 µM (inactive) | 20.2 µM (inactive) | 18.5 µM (inactive) | 16.1 µM (inactive) | 17.5 µM (inactive) | 19.1 µM (inactive) | 13.4 µM (inactive) | 17.3 µM (inactive)
2 | C/C(=N/NC(=S)N(Cc1ccccn1)Cc1ccccn1)c1cnccn1 | 0.129 µM (active) | 0.0472 µM (active) | 0.288 µM (active) | 0.0622 µM (active) | 0.374 µM (active) | 0.476 µM (active) | 2.69 µM (inactive) | < 0.0178 µM (active) | 0.594 µM (active) | 0.962 µM (active) | 3.43 µM (inactive) | 0.0242 µM (active) | 0.721 µM (active) | 0.0551 µM (active) | 0.329 µM (active) | 0.537 µM (active) | 0.373 µM (active) | 0.0948 µM (active) | 0.0381 µM (active) | 0.565 µM (active)
3 | N/N=C(\Nc1ccccc1)SCc1ccccc1 | > 100 µM (inactive) | > 100 µM (inactive) | > 100 µM (inactive) | > 100 µM (inactive) | > 100 µM (inactive) | > 100 µM (inactive) | > 100 µM (inactive) | > 100 µM (inactive) | > 100 µM (inactive) | > 100 µM (inactive) | 41.7 µM (inactive) | > 100 µM (inactive) | > 100 µM (inactive) | > 100 µM (inactive) | > 100 µM (inactive) | > 100 µM (inactive) | > 100 µM (inactive) | > 100 µM (inactive) | > 100 µM (inactive) | > 100 µM (inactive)
4 | S=C(N/N=C(\C(=N/NC(=S)N1CCCCC1)c1ccccn1)c1ccccn1)N1CCCCC1 | 32.7 µM (inactive) | 17.3 µM (inactive) | 9.12 µM (inactive) | 15.2 µM (inactive) | 34.8 µM (inactive) | 29.1 µM (inactive) | 26.3 µM (inactive) | 26.3 µM (inactive) | 21.3 µM (inactive) | 30.3 µM (inactive) | 56.1 µM (inactive) | 7.06 µM (inactive) | 21.1 µM (inactive) | 3.91 µM (inactive) | 31.1 µM (inactive) | 26.5 µM (inactive) | 67.9 µM (inactive) | 8.53 µM (inactive) | 9.18 µM (inactive) | 12.1 µM (inactive)
5 | COc1cc(C(=O)N(C)N(C)C)cc(OC)c1OC | > 10 µM (inactive) | > 10 µM (inactive) | > 10 µM (inactive) | > 10 µM (inactive) | > 10 µM (inactive) | > 10 µM (inactive) | > 10 µM (inactive) | > 10 µM (inactive) | > 10 µM (inactive) | > 10 µM (inactive) | > 10 µM (inactive) | > 10 µM (inactive) | > 10 µM (inactive) | > 10 µM (inactive) | > 10 µM (inactive) | > 10 µM (inactive) | > 10 µM (inactive) | > 10 µM (inactive) | > 10 µM (inactive) | > 10 µM (inactive)
6 | O=C1NC2(CCN(CCc3ccccc3)CC2)Oc2ccccc21 | 61.9 µM (inactive) | 33.3 µM (inactive) | > 100 µM (inactive) | 18.5 µM (inactive) | 49.2 µM (inactive) | > 100 µM (inactive) | 62.1 µM (inactive) | 61.1 µM (inactive) | > 100 µM (inactive) | 85.3 µM (inactive) | 36.9 µM (inactive) | 38.2 µM (inactive) | 73.6 µM (inactive) | 49.3 µM (inactive) | 64.6 µM (inactive) | 46.6 µM (inactive) | 33.7 µM (inactive) | 32.5 µM (inactive) | 95.1 µM (inactive) | 46.5 µM (inactive)
7 | CO[C@H]1C[C@H](O[C@H]2CC[C@]3(C=O)[C@H]4CC[C@]5(C)[C@@H](C6=CC(=O)OC6)CC[C@]5(O)[C@@H]4CC[C@]3(O)C2)O[C@H](C)[C@H]1O[C@@H]1O[C@H](CO[C@@H]2O[C@H](CO)[C@@H](O)[C@H](O)[C@H]2O)[C@@H](O)[C@H](O)[C@H]1O | 0.0658 µM (active) | 0.0588 µM (active) | 0.0593 µM (active) | 0.147 µM (active) | 0.0395 µM (active) | 0.0543 µM (active) | 0.158 µM (active) | 0.171 µM (active) | 0.0158 µM (active) | 0.186 µM (active) | 0.11 µM (active) | 0.034 µM (active) | 0.349 µM (active) | > 100 µM (inactive) | < 0.0131 µM (active) | 0.223 µM (active) | 0.139 µM (active) | 0.0215 µM (active) | 0.0139 µM (active) | 0.0546 µM (active)
